Test results taken from patent US6933285B2, “Flavin N-oxides: new anti-cancer agents and pathogen eradication agents” (The Ohio State University, priority 2002, dated 2005).

Experiments:
Water solubility = type: physicochemical
Description: Riboflavin N-oxide, is one example of a flavin N-oxide, it is water soluble and electrically neutral. Additionally, upon fragmentation of the neutral radical, riboflavin N-oxide forms the hydroxyl radical, which damages the nucleic acid, and riboflavin, vitamin B2, which is generally regarded as safe in humans.
In the methods of the present invention, the flavin N-oxides are introduced to the composition containing the blood products. It is preferred that the flavin N-oxides of the present invention are water-soluble. By “water soluble” we mean that it is preferred that the solubility of the flavin N-oxides is at least 100 micromolar in water. An exemplary flavin N-oxide for the methods of the present invention is riboflavin N-oxide. Once introduced to the blood product composition, riboflavin N-oxide, which is electrically neutral, may passively transport into cells, where it is enzymatically activated to form a radical anion. Additionally, riboflavin N-oxide may be activated by electromagnetic radiation. When electromagnetic radiation is used as the activator, the wavelength of light is preferably in the visible region.

[1] = tested on: PA-Lymphoblastoid Cell Line; assay: PA-Lymphoblastoid cell viability under oxygen deprivation in the presence of sensitizers; type: cell-based; settings: PA-Lymphoblastoid cells; for cell count at Time (hour) 0 / cell count at Time (hour) 4 / cell count at Time (hour) 20: solutions and cells bubbled with nitrogen 15 minutes; for cell count at Time (hour) 0: time 0 hour; for cell count at Time (hour) 4: time 4 hour; for cell count at Time (hour) 20: time 20 hour
Experimental: PA-Lymphoblastoid Cell Line: Study of the effect of oxygen deprivation in the presence of 3 sensitizers Six solutions were prepared having the solutions and the cells from each of the 6 sets were “bubbled” with nitrogen separately for 15 minutes before being mixed.
The results of this study are shown graphically in FIG. 5.

bacteriophage Φ6 = settings: platelet concentrates, normal oxygen tension, UVA; cited from earlier work
[2] = tested on: non-enveloped parvoviruses; settings: cited from earlier work

Row | water solubility (Water solubility) | Compound | hypoxic toxicity ([1]; oxygen deprivation) | cell count at Time (hour) 0 [1] [million cells/mL] | cell count at Time (hour) 4 [1] [million cells/mL] | cell count at Time (hour) 20 [1] [million cells/mL] | inactivation of the virus bacteriophage Φ6 (bacteriophage Φ6) | potency towards the non-enveloped parvoviruses [2]
1 | water soluble | Cc1cc2c(cc1C)[n+]([O-])c1c(=O)[nH]c(=O)nc-1n2CC(O)C(O)C(O)CO (centres unmarked) [RBO, riboflavin N-oxide] | high hypoxic toxicity | 0.45 | 0.46 | 0.06 | – | –
2 | – | Cc1cc2nc3c(=O)[nH]c(=O)nc-3n(C[C@H](O)[C@H](O)[C@H](O)CO)c2cc1C [Riboflavin (RB), Riboflavin] | – | 1 | 0.9 | 0.63 | – | –
3 | – | Cc1oc2c(C)c3oc(=O)cc(C)c3cc2c1CN [AMT] | – | – | – | – | completely inactivate | limited potency
4 | – | COc1c2occc2cc2ccc(=O)oc12 [8-MOP] | – | – | – | – | completely inactivate | –
5 | – | Nc1n[n+]([O-])c2ccccc2[n+]1[O-] [Tirapazamine (TPZ), Tirapazamine] | – | 0.4 | 0.4 | 0.36 | – | –
